Consider 10 molecules from US20120237566A1, “INHIBITING STOMACH-ACID RELEASE, REDUCING INFLAMMATION AND PREVENTING AND TREATING CANCER: COMPOSITIONS AND METHODS OF USE” (Venture Isles, LLC, priority 2011, published 2012).

“Also recorded” adds a separate entry of the source. Where two headings read alike, the source gives them in different places.

Experiment [1] addresses high-affinity K site (Homo sapiens, UniProt P20648). Conditions: cited from earlier work.
Experiment [2] concerns mitosis. Conditions: cited from earlier work.
In experiment [3] the test system is gastric H, K-ATPase. The experiment is described as follows: H, K-ATPase activity of isolated gastric microsomal vesicles. It counts as biochemical. An excerpt: (§1) Heavy-metal ions generally comprise Ba, Ca, and Zn and show synergistic inhibition when used in combination with thiocyanate and isothiocyanate. Zinc (Zn) inhibits acid secretion by a mechanism quite different than Barium and Calcium.

The subject of experiment [4] is chambered bull frog gastric mucosa. Nature of the experiment: acid secretion by chambered bull frog gastric mucosa in vitro. Format: cell-based.
Description: The method further comprises Step 2 that includes testing to determine if a candidate molecule inhibits the H, K-ATPase activity (inhibits the pump turnover), then test in an appropriate animal model(s) for the antisecretary activity and select the best candidates for clinical trial, as in Step 6.
as §1
However, SCN and ZN include different modes of operation.

The subject of experiment [5] is gastric microsomal K-pNPPase. The experiment is described as follows: K-pNPPase activity of gastric microsomes. Format: biochemical.
Experiment [6] addresses highly purified H, K-ATPase (Homo sapiens, UniProt P20648). The note with it: cited from earlier work.
Experiment [7] has as its system chambered bull frog gastric mucosa. Conditions: cited from earlier work.
The test system of experiment [8] is gastric H, K-ATPase. The note with it: cited from earlier work.
Experiment [9] relates to Na—K-ATPase. The note with it: cited from earlier work.
Experiment [10] concerns the target H, K-ATPase (Homo sapiens, UniProt P20648). The note with it: cited from earlier work.
For experiment [11], the system named is AP-1 mediated transcription. The note with it: in vitro; cited from earlier work.
Experiment [12] has as its system inducible nitric oxide synthase (iNOS). The note with it: activated macrophages; cited from earlier work.
Experiment [13] has as its system lipoxygenase. Conditions: cited from earlier work.
Experiment [14] deals with activated neutrophils. The note with it: micromolar EGCG; cited from earlier work.
Experiment [15] has as its system neutrophil-mediated angiogenesis. The note with it: oral; in vivo; cited from earlier work.
In experiment [16] the target is T1, neutrophil elastase (Homo sapiens, UniProt P08246).
T1 sequence (P08246 30-267): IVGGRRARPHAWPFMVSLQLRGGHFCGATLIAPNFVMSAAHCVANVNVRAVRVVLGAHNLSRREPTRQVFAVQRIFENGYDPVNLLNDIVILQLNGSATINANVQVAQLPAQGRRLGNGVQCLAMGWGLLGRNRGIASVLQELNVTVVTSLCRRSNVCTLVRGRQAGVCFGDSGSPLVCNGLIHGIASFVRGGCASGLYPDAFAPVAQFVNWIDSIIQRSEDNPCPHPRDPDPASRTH
Conditions: cited from earlier work.

Experiment [17] relates to neutrophil chemotaxis. Conditions: in vitro; cited from earlier work.

highly purified H, K-ATPase, sequence (P20648 whole entry): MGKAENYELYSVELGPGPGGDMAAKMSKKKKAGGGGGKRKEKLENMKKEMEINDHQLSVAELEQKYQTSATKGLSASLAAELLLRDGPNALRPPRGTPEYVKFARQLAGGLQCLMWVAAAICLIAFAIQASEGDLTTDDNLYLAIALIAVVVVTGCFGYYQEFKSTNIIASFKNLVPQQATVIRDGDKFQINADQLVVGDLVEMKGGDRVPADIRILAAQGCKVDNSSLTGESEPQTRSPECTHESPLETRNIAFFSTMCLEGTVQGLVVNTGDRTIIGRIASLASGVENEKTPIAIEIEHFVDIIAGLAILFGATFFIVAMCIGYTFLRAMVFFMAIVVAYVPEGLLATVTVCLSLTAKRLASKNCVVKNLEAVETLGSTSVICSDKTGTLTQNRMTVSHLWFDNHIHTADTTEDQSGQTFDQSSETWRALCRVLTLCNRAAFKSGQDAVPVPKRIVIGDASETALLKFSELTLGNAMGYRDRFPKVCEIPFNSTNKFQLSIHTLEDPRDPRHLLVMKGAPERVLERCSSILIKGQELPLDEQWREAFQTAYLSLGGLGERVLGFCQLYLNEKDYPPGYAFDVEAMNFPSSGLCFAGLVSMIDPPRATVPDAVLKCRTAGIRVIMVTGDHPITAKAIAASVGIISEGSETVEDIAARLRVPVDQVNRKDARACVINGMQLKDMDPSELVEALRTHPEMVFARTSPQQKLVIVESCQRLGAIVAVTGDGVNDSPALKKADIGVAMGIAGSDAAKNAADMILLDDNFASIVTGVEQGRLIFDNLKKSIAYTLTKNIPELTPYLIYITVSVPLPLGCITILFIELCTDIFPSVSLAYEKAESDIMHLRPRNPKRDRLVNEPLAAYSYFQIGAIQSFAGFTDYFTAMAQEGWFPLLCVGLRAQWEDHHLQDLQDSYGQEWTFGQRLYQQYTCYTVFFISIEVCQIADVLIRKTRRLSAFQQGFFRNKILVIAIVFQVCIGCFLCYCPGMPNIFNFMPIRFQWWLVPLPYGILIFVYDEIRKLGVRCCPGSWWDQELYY
highly purified H, K-ATPase, sequence (P51164 whole entry partner): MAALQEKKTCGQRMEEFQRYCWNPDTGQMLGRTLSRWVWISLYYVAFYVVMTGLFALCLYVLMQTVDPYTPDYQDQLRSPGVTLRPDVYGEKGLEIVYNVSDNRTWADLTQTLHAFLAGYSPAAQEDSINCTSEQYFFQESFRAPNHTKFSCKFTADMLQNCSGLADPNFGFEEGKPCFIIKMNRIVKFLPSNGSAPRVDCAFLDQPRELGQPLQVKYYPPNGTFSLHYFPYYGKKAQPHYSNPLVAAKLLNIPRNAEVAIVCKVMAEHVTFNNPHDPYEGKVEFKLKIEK
high-affinity K site, sequence (P20648 whole entry): as the sequence (P20648 whole entry) above
high-affinity K site, sequence (P51164 whole entry partner): as the sequence (P51164 whole entry partner) above
H, K-ATPase, sequence (P20648 whole entry): as the sequence (P20648 whole entry) above
H, K-ATPase, sequence (P51164 whole entry partner): as the sequence (P51164 whole entry partner) above

On to “2-[3,4]-dichlorophenylamino quinolizium bromide [nolinium bromide]”, for which the “interaction with the high-affinity K site” value in experiment [1] was “interacts competitively”.

For `N#CSc1ccc(Cl)cc1Cl` [DCPT, 2,4-dichlorophenyl thiocyanate], in experiment [2], the “anti-proliferative / antimitotic activity” value is recorded as “anti-proliferative property; also recorded: antimitotic”.

On to `[Zn+2]` [Zn, Zinc], for which the “activity of the isolated H, K-ATPase” value in experiment [3] is given as “strongly inhibited”. Further, the “H, K-ATPase activity” value in experiment [3] (2 μM) is on record as “abolished”. Also, the “H, K-ATPase activity” value in experiment [3] (2 μM, listed as Zinc) was “abolishes”. Further, the “sensitivity of H, K-ATPase activity relative to pNPPase activity” value in experiment [3] (inhibition by Zn) is recorded as “ten times more sensitive”. Besides, in experiment [4], the “inhibition of gastric-acid secretion” value is “potent inhibitors”, the “reversal of inhibition of acid secretion by beta-mercaptoehanol (βME) in the secretary solution” value was “could be reversed” and the “reversal of inhibition of gastric acid secretion by raising K-salt in the bathing medium” value was “totally ineffective”. Besides, the “restoration of acid secretion after Zn inhibition” value in experiment [4] (1 mM beta-mercapto-ehanol (βME)) is reported as “promptly restored”. Also, the acid secretion result in experiment [4] (at a concentration of 60 added to the secretary solution, within 15 min) is listed as “reduces the acid secretion to near zero”. In addition, the “activity of the isolated pNPPase” value in experiment [5] was “strongly inhibited”. Moreover, the K-pNPPase activity entry in [5] (20 μM) is listed as “abolishes”.

For the molecule `[Ca+2]` [Calcium], in experiment [5], the “response of K-pNPPase inhibition to higher K” value was “nonresponsive to higher K”. Also, the K-pNPPase activity result in [5] (concentrations comparable to Ba) was “strong inhibition”.

In the case of `N#C[S-].[Na+]` [thiocyanate, Sodium thiocyanate], in experiment [6], the “binding to purified H, K-ATPase” value is “specific binding” and the “displacement of bound SCN by K” value was “could be displaced by K”. The “binding to purified H, K-ATPase” value in [6] (listed as SCN) is “binding to a specific site”. Moreover, in experiment [3] (10 mM), the “H, K-ATPase activity” value was “totally ineffective”. The “gastric H transport” value in experiment [7] was “potent inhibitor”. In [4], the “inhibition of gastric-acid secretion” value is on record as “potent inhibitors” and the “reversal of inhibition of gastric acid secretion by raising K-salt in the bathing medium” value was “can be reversed”. The “H, K-ATPase mediated hydrolysis of ATP (ATPase activity)” value in experiment [8] was “does not inhibit”. Besides, in experiment [5], the “reversal of K-pNPPase inhibition by high K” value is “reversed by high K”. The K-pNPPase activity entry in experiment [5] (10 mM) is “abolished”.

`Clc1ccccc1C(c1ccccc1)(c1ccccc1)n1ccnc1` [CLT, clotrimazole]: the “inhibition of Na—K-ATPase” value in experiment [9] is “potent inhibitors”. Further, the “inhibition of H, K-ATPase” value in experiment [10] was “potent inhibitors”.

Turning to `[Ba+2]` [Barium], the “reversal of inhibition of acid secretion by higher concentration of K” value in [7] is “competitively reverses”. Moreover, the acid secretion entry in experiment [7] (higher concentration (above 1 mM)) was “blocks the acid secretion”; in experiment [7] (less than 1 mM concentration) it was “slight stimulation”. Also, the “K-pNPPase activity, antagonism with K” value in [5] is “parallel Ba/K antagonism”.

`COc1cc(C=CC(=O)CC(=O)C=Cc2ccc(O)c(OC)c2)ccc1O` [curcumin, 1,7-bis(4-hydroxy-3-methoxyphenyl)-1,6-heptadiene-3,5-dione]: in [11], the “AP-1 mediated transcription related to cytokine regulation” value is on record as “inhibits”. Moreover, the “inducible nitric oxide synthase (iNOS)” value in experiment [12] was “suppresses”. Also, the lipoxygenase inhibition result in [13] is “inhibits”.

Consider `O=C(O[C@@H]1Cc2c(O)cc(O)cc2O[C@@H]1c1cc(O)c(O)c(O)c1)c1cc(O)c(O)c(O)c1` [EGCG, (−)epigallocatechin-3-gallate], for which, in experiment [14], the “apoptosis of activated neutrophils” value is reported as “inhibits” and the “reactive oxygen species activity” value was “represses”. Besides, the neutrophil-mediated angiogenesis result in experiment [15] is recorded as “block”. In [16], the neutrophil elastase inhibition entry is recorded as “strongly inhibits”. Moreover, the chemokine-induced neutrophil chemotaxis result in experiment [17] is reported as “dramatically inhibits”.

With `Cc1nc2c(OCc3ccccc3)cccn2c1CC#N` [SCH 28080], the “interaction with the high-affinity K site” value in experiment [1] is “interacts competitively”.
